In patent US20160319277A1, “METHODS OF IMPROVED PROTEIN PRODUCTION USING MIRNAs AND SIRNAs” (THE JOHNS HOPKINS UNIVERSITY, priority 2015, published 2016):

Tested on: HEK-CMV-Luc2-Hygro cells
Test: High-throughput genome-wide siRNA screen and validation screen for luciferase expression
Type: cell-based, human
Conditions: for Viable cell density (%) / per cell luciferase yield (%): Table 4, primary screen, 72 h, negative control = 100%; for Luciferase activity (%) / Per cell luciferase yield (%) / Viable cell number (%): Table 6, polyamine pathway gene siRNAs
In short: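 HEK cells with CMV-driven luciferase were reverse-transfected with 0.8 pmol siRNA per well (3 per gene) via RNAiMax and grown 72 h at 37 °C. Duplicate wells read for luciferase (ONE-Glo) and viability (CellTiter-Glo). Values given as % of plate negative-control median with MAD-based z-scores; hits with ≥2 siRNAs at z>3 retested using 3 new siRNAs.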

Row | Substance | Viable cell density (%) | per cell luciferase yield (%) | Luciferase activity (%) | Per cell luciferase yield (%) | Viable cell number (%)
1 | 137 (GAACCGUCGCUACAAGACATT; chemistry not given here; listed as Homo sapiens) [compound 137] | 88.616 | 212.905 |  |  | 
2 | 138 (CCCUCCUACUAUUACCCGUTT; chemistry not given here; listed as Homo sapiens) [compound 138] | 96.869 | 162.999 |  |  | 
3 | 139 (GGAGAUAUGCAAAGCAGAATT; chemistry not given here; listed as Homo sapiens) [compound 139] | 83.011 | 194.043 |  |  | 
4 | 140 (GUCCGAGUGUGGUUCUGUATT; chemistry not given here; listed as Homo sapiens) [compound 140] | 85.820 | 180.401 |  |  | 
5 | 141 (AGAGGACCCAGAUUGUCUATT; chemistry not given here; listed as Homo sapiens) [compound 141] | 97.298 | 183.386 |  |  | 
6 | 142 (AAGUCAACAUAGCCCGAAATT; chemistry not given here; listed as Homo sapiens) [compound 142] | 111.487 | 145.707 |  |  | 
7 | 143 (GCAAAGAUAGCGAGAAAUATT; chemistry not given here; listed as Homo sapiens) [compound 143] | 75.599 | 193.846 |  |  | 
8 | 144 (GGAUCACGCAGCUCAAGAUTT; chemistry not given here; listed as Homo sapiens) [compound 144] | 91.538 | 161.634 |  |  | 
9 | 145 (CCAGUUCGACCUGAACAAATT; chemistry not given here; listed as Homo sapiens) [compound 145] | 85.750 | 176.019 |  |  | 
10 | 146 (GACCUAUACUCAUUCUGCATT; chemistry not given here; listed as Homo sapiens) [compound 146] | 83.351 | 171.308 |  |  | 
11 | 147 (GUUUCGACCUCGAUCCAGATT; chemistry not given here; listed as Homo sapiens) [compound 147] | 61.490 | 256.085 |  |  | 
12 | 148 (CAGCCUCACCAAGCACAAATT; chemistry not given here; listed as Homo sapiens) [compound 148] | 85.866 | 167.413 |  |  | 
13 | 149 (CGACCAUCAUGGAAAACAUTT; chemistry not given here; listed as Homo sapiens) [compound 149] | 57.472 | 294.800 |  |  | 
14 | 150 (CGCUUUAACUGGAAGCUCUTT; chemistry not given here; listed as Homo sapiens) [compound 150] | 103.662 | 146.993 |  |  | 
15 | 151 (GAAACUGCAUGAGAAGACATT; chemistry not given here; listed as Homo sapiens) [compound 151] | 59.084 | 288.857 |  |  | 
16 | 152 (CGAUGUUCGUGGACAUUCUTT; chemistry not given here; listed as Homo sapiens) [compound 152] | 80.013 | 234.608 |  |  | 
17 | 153 (CACUUUCCUGGGUAUUGUATT; chemistry not given here; listed as Homo sapiens) [compound 153] | 87.831 | 171.072 |  |  | 
18 | 154 (CAACAGUACUUACCGAUGUTT; chemistry not given here; listed as Homo sapiens) [compound 154] | 115.513 | 141.760 |  |  | 
19 | 155 (GCCUUGCUCCGAACCUUCATT; chemistry not given here; listed as Homo sapiens) [compound 155] | 94.839 | 169.972 | 161.1 | 169.9 | 94.8
20 | 156 (GAUUAUCCUUGUACUUUGATT; chemistry not given here; listed as Homo sapiens) [compound 156] | 101.904 | 141.842 | 144.5 | 141.8 | 101.9
21 | 157 (GAACAGCUGGGAACCUUCATT; chemistry not given here; listed as Homo sapiens) [compound 157] | 60.645 | 254.007 |  |  | 
22 | 158 (CUUCGACAGUACUUCCGGATT; chemistry not given here; listed as Homo sapiens) [compound 158] | 104.020 | 161.613 |  |  | 

Row | Substance | Viable cell density (%) | per cell luciferase yield (%) | Luciferase activity (%) | Per cell luciferase yield (%) | Viable cell number (%)
23 | 159 (GGAGUUCUUUGAUGAGAAATT; chemistry not given here; listed as Homo sapiens) [compound 159] | 96.357 | 157.243 |  |  | 
24 | 160 (GGACCAAGCCCUAAAGGAATT; chemistry not given here; listed as Homo sapiens) [compound 160] | 68.989 | 220.902 |  |  | 
25 | 161 (GCAGUGGACAUAGAAGAGATT; chemistry not given here; listed as Homo sapiens) [compound 161] | 110.815 | 140.658 |  |  | 
26 | 162 (CGAUAUGCUUUUCUACGUUTT; chemistry not given here; listed as Homo sapiens) [compound 162] | 76.131 | 235.013 |  |  | 
27 | 163 (CCAGCGAUACAACUCCUAUTT; chemistry not given here; listed as Homo sapiens) [compound 163] | 83.636 | 176.821 |  |  | 
28 | 164 (GCAGGCACAUGGUUCCUCUTT; chemistry not given here; listed as Homo sapiens) [compound 164] | 83.512 | 259.478 |  |  | 
29 | 165 (AGGUCAAUGUGACUUUCCATT; chemistry not given here; listed as Homo sapiens) [compound 165] | 105.029 | 161.785 |  |  | 
30 | 166 (CCAAGUCCAAUGCACCUGUTT; chemistry not given here; listed as Homo sapiens) [compound 166] | 76.798 | 186.195 |  |  | 
31 | 167 (CCUGGACAGUUUGAAGCAATT; chemistry not given here; listed as Homo sapiens) [compound 167] | 88.009 | 174.946 |  |  | 
32 | 168 (GCUUCCUCUUGGACCUCAATT; chemistry not given here; listed as Homo sapiens) [compound 168] | 78.156 | 185.175 |  |  | 
33 | 169 (GCGGAAAAGGUAUCCCUCATT; chemistry not given here; listed as Homo sapiens) [compound 169] | 80.173 | 184.608 |  |  | 
34 | 170 (CCAACAAGGAAGACGAAAATT; chemistry not given here; listed as Homo sapiens) [compound 170] | 267.320 | 284.062 |  |  | 
35 | 171 (CCCUGUUCAUUAUAAGUCUTT; chemistry not given here; listed as Homo sapiens) [compound 171] | 279.253 | 272.683 |  |  | 
36 | 172 (GGAUAUUGGAGGCUAGUCATT; chemistry not given here; listed as Homo sapiens) [compound 172] | 289.677 | 157.868 |  |  | 
37 | 173 (GACUAUUGAUACCAAAACATT; chemistry not given here; listed as Homo sapiens) [compound 173] | 82.689 | 209.398 |  |  | 
38 | 174 (GCAAUGCUUGCAAAACUCATT; chemistry not given here; listed as Homo sapiens) [compound 174] | 90.976 | 189.252 |  |  | 
39 | 175 (CAUUGGUGUUGACAAUCCATT; chemistry not given here; listed as Homo sapiens) [compound 175] | 85.046 | 189.850 |  |  | 
40 | 176 (GUUGCAAACUUAUCGAGGATT; chemistry not given here; listed as Homo sapiens) [compound 176] | 79.093 | 186.786 |  |  | 
41 | 177 (CUCUUAUGGUAACCAAUGATT; chemistry not given here; listed as Homo sapiens) [compound 177] | 91.558 | 160.246 |  |  | 
42 | 178 (AAAUGCAACCCAAAAAGUATT; chemistry not given here; listed as Homo sapiens) [compound 178] | 76.280 | 200.322 |  |  | 
43 | 179 (GUACCUGCGGGAUUACUCATT; chemistry not given here; listed as Homo sapiens) [compound 179] | 90.987 | 160.687 |  |  | 
44 | 180 (CCACCCUACUAUGUACUGUTT; chemistry not given here; listed as Homo sapiens) [compound 180] | 93.181 | 185.763 |  |  | 
